The subject of series [1] is patients with cognitive dysfunction caused by HIV-associated CM-IRIS. In words: overall cognitive status by MoCA and IHDS scales. The class given is in vivo, human. The note with it: of 7 patients treated with lenalidomide. As to the method: FIGS. 2A and 2B show results of treating patients with HIV-associated CM who still develop cognitive dysfunction after completing the anti-cryptococcal induction treatment. The patients are treated with lenalidomide. In the treatment, lenalidomide is administered at 25 mg/day for immuno-modulation for a total of 6 treatment cycles, with each cycle including 21 days of lenalidomide administration followed by 7 days of no lenalidomide. The patients are further assigned to a cognitive improvement group and a cognitive non-improvement group. […] FIG. 2A compares CSF biochemistry in the cognitive improvement group and cognitive non-improvement group before and after treatment.
Definition of cognitive dysfunction: The Chinese version of the Montreal Cognitive Assessment (MoCA) shown in Table 1, International HIV Dementia Scale (IHDS) shown in Table 2, and Center for Epidemiological Research Depression Scale (CES-D) are used to assess patients' cognitive status. They all use Chinese questionnaires that have been validated for the evaluation of Chinese patients. The MoCA tests eight major neurocognitive domains, including short-term memory recall (no score), visuospatial ability, naming, attention, language, conceptual thinking, working memory, and orientation of time and place. […]

The conditions of series [2]: in vivo; cited from earlier work.

This is an account of results in patent US20240207240A1, “Method for Improving or Treating Cognitive Dysfunction Complicating HIV-associated Cryptococcal Meningitis with Lenalidomide” (The First Affiliated Hospital Zhejiang University School of …, priority 2022, published 2024).

SMILES strings stand for the structures.

Regarding `Nc1cccc2c1CN(C1CCC(=O)NC1=O)C2=O` (centres unmarked) [lenalidomide], the “patients whose cognitive status returned to normal” value in series [1] is 4 patients. For the same compound, the side effects entry in series [2] is recorded as “milder than those of thalidomide”.
